In patent US20230002346A1, “NEW COMPOUNDS AND METHODS” (BenevolentAl Bio Limited, priority 2019, published 2023):

Molecular target: T1, hERG channel (Homo sapiens, UniProt Q12809)
T1 construct: expressed in transfected cells
Assay: hERG assay (QPatch automated patch clamp, CHO cells)
Assay type: cell-based
Settings: CHO cells expressing hERG, whole-cell patch clamp, 0.003 μM to 10 μM
In short: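 Whole-cell QPatch recordings at room temperature on CHO cells stably expressing hERG, "+40/−40" protocol from −90 mV holding, 0.1 Hz. Eight cumulative concentrations (0.003–10 μM) on one cell after 0.1% DMSO vehicle; tail-current inhibition versus vehicle fitted to four-parameter logistic, Hill slopes 0.5–2.0 accepted; mean of N≥3 cells.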

T1 sequence (Q12809 whole entry): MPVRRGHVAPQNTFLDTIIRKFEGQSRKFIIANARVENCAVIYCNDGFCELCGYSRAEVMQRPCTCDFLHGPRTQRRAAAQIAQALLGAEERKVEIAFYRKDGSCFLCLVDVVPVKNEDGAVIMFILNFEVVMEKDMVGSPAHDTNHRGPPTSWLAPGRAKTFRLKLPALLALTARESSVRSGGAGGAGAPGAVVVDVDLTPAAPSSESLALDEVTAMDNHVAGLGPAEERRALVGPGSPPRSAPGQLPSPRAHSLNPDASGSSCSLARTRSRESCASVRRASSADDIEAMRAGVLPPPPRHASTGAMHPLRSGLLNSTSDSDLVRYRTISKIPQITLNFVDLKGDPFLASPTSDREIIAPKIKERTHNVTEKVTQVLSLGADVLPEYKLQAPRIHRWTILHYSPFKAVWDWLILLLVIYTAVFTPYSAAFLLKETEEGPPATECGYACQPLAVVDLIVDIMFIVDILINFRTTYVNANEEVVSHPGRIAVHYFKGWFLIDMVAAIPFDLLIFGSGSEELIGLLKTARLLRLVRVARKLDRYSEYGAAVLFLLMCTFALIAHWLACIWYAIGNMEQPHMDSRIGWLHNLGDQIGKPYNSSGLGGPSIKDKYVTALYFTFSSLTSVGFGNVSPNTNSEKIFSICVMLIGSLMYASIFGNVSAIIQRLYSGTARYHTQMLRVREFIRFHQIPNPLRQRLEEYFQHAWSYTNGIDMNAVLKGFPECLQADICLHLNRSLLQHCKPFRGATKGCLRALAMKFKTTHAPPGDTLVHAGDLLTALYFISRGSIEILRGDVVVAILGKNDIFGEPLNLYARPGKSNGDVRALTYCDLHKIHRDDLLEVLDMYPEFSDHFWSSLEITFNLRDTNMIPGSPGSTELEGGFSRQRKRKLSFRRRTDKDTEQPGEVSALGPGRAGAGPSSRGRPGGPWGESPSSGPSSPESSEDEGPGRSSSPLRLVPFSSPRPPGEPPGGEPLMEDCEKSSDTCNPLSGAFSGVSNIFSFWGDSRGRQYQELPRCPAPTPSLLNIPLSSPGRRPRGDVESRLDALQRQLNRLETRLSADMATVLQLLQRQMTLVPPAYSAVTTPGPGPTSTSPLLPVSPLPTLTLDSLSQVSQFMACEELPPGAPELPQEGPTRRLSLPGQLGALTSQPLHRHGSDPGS

O=C(Nc1ccc(OC(F)(F)Cl)cc1)c1ccc(=O)n(-c2ccccc2)c1 [Example 56, N-[4-[Chloro(difluoro)methoxy]phenyl]-6-oxo-1-phenyl-pyridine-3-carboxamide]
IC50: > 10 µM
